In PMC7230911, “Meroterpenoids from the Brown Alga Cystoseira usneoides as Potential Anti-Inflammatory and Lung Anticancer Agents” (Marine Drugs, 2020):

System: iNOS
Assay: iNOS protein expression in LPS-stimulated THP-1 macrophages (western blot)
Assay type: cell-based, human
Details: 8 μg/mL, LPS-stimulated THP-1 cells
Description: COX-2 is the key enzyme regulating the production of prostaglandins, which are the central mediators of inflammation. On the other hand, iNOS enzyme represents an important molecular target closely involved in inflammatory responses. Thus, the effect of the AMTs 1–8 on LPS-induced COX-2 and iNOS protein expression was investigated by western blot analysis.
Figure 3 Effect of meroterpenoids 1–8 on LPS-induced COX-2 and iNOS protein expression in THP-1 macrophages. Cells were pretreated for 1 h with the compounds (1, 2, 3, 4, 7, and 8 at 8 μg/mL; 5 and 6 at 4 μg/mL) and then stimulated with LPS (1 μg/mL). Cytosolic lysates from 24 h-stimulated cells were separated on 10% SDS-PAGE. COX-2, iNOS, and β-actin were detected by western blot analysis. Data are expressed as means ± SE from three independent experiments. Statistical significance is indicated (+++ p < 0.001 and ++ p < 0.01, vs. Control, respectively; * p < 0.05, and ** p < 0.01 vs. Control + LPS).
Western blotting was used to measure the protein levels of COX-2 and iNOS [65]. […] Proteins concentration in cell lysates was determined by Bio-Rad Protein Assay, based on the method of Bradford (BioRad, Richmond CA, USA). […] The protein band densities were quantified using a Scientific Imaging Systems (Biophotonics ImageJ Analysis Software, National Institute of Mental Health, Bethesda, MD, USA).

Structure (SMILES): COc1c(C)cc(O)cc1C/C=C(\C)CC(=O)/C=C(\C)CCCC(C)(O)C(=O)/C=C/C(C)(C)O (stereo not shown) [Compound 2, 11-hydroxy-1’-O-methylamentadione]
- effect on iNOS (in words): significantly inhibited
